# Measurements as given in patent US7772228B2, “Method for treatment of bacterial infections with once or twice-weekly administered rifalazil” (priority 1998, dated 2010).
# Columns and labels:
# M. tuberculosis = format: cell-based, Mycobacterium tuberculosis; settings: comparison of MIC50 and MIC90, clinical isolates
# [1] = human, in vivo
# Description: The third trial (003) was a randomized, rising, double-blind, multiple-dose, placebo-controlled study where subjects were observed during the 14-consecutive days of drug administration in dosages 0, 5 and 25 mg/day and for an additional 14 days without medication. All subjects received the dose within 30 minutes after eating a standardized breakfast. Subjects were divided into two groups. In Group 1, eight subjects were randomized to a daily 25 mg dose of rifalazil and four subjects were randomized to placebo. Numerous adverse reactions began to appear with the 25 mg dose several days after dosing and it became apparent that 25 mg daily dose was not safe. Consequently, after review of the safety data, the study protocol was amended to proceed with a lower dose of 5 mg in group 2. Group 2 consisted of eight subjects randomized to a daily 5 mg dose of rifalazil and four subjects randomized to placebo.
# In the clinical trials 001 and 002 all patients were submitted to laboratory testing where the hematology, serum chemistry and urinanalysis were examined prior to dosing, during dosing and at least 14 days following the cessation of drug administration.
# Laboratory testing regimen for 003 and 004 trials was the same as for 001 and 002 trials.
# The onset and magnitude of decrease in hematologic parameters appeared to be related to this dose. In order to better visualize the drop and subsequent recovery in these parameters, the data were graphed to synchronize subjects to their last dose.
# [2] = Multiple-dose oral toxicology studies in dogs; format: in vivo
# Description: In chronic studies with dogs and rats, the no-observed-adverse-effect-level was 1000 mg/kg. […] Significant partitioning of drug-related radioactivity to the formed elements of the blood was observed. […] The urine contained a small amount (5.5%) of radioactivity.
# Single-dose and multiple-dose oral toxicology studies were conducted in mice, rats, and dogs. In addition, to maximize systemic exposure, single-dose intravenous (IV) and intraperitoneal (IP) studies were conducted in rats and mice. Four-week and 13-week oral studies in dogs and rats and 26-week oral studies in rats included standard clinical measurements and physical and pathological evaluations.
# M. intracellulare = settings: 31 strains, agar dilution; cited from earlier work
# clinical [3] = settings: human, in vivo
# Source text: (§1) Pharmacokinetic analyses associated with clinical trials involved measurement of concentrations of rifalazil in plasma and/or whole blood of subjects participating in the four Phase 1 studies using high performance liquid chromatography.
# Attempts were made to analyze the multiple-dose pharmacokinetics using a linear 3-compartment model, and a 3-compartment model incorporating enzyme induction. However, neither multi-compartmental model accurately characterized the pharmacokinetic parameters in all subjects. Daily dosing and related early terminations due to adverse reactions, differences in bioavailability from a food effect, and nonconnective dose administration further complicated these analyses. Therefore, only noncompartmental pharmacokinetic parameters were derived for clinical trials 003 and 004.
# Helicobacter pylori = test system: Helicobacter pylori; parameters: unit of the concentration uncertain; settings: time-kill, broth medium, 0.04 (unit uncertain); cited from earlier work
# [4] = test system: Chlamydia pneumoniae strain AR-39; experiment: Mouse model infected with Chlamydia pneumoniae; format: in vivo; settings: intraperitoneal 1 mg/kg QID for three days; five days after cessation
# Description: Sensitivity testing was conducted in cell cultures against Chlamydia pneumoniae strain TW-l 83 using rifalazil, clanthromycin, or azithromycin. […] The in vivo testing of rifalazil used a mouse model infected with Chlamydia pneumoniae strain AR-39. […] All control animals remained infected.
# [5] = Clinical signs, general behavior and spontaneous locomotor activity of mice; format: in vivo
# Description: Pharmacological studies were undertaken in mice, rats, and dogs, and in isolated guinea pig ileum.
# Rifalazil had little effect on the clinical signs or general behavior of mice following oral administration of 100, 300, or 1,000 mg/kg. Rifalazil had no effect on the spontaneous locomotor activity of mice at 100 and 300 mg/kg.
# [6] = test system: M. tuberculosis in human macrophages; experiment: MIC and MBC against intracellular bacteria in human macrophages; format: cell-based, Mycobacterium tuberculosis
# clinical [7] = settings: human, in vivo; remark: listed apart in the source
# Description: A total of four clinical trials have been conducted to study the effects of rifalazil in humans. Two single-dose Phase 1 clinical trials (001) and (002) assessed the safety and pharmacokinetics of rifalazil in normal, healthy, fasted subjects. In the 001 trial, a single 300 mg dose of rifalazil was administered to six subjects. In the 002 trial, single doses of 30 mg or 100 mg were administered to eight subjects each. The results of these studies indicated a substantially higher incidence of adverse reactions at the 300 mg dose compared to the 30 mg or 100 mg dose.
# The pharmacokinetics of rifalazil in whole blood in these two clinical trials was similar to that of rifalazil pharmacokinetics in plasma. […] Therefore, future pharmacokinetic analyses focused on rifalazil concentrations in plasma. Table 7 summarizes noncompartmental parameters derived from plasma concentrations in fasted subjects following administration of single doses of 30 mg, 100 mg, or 300 mg of rifalazil in these studies.
# as §1
compound,measurement,setting,value
"CO[C@H]1/C=C/O[C@@]2(C)Oc3c(C)c(O)c4c(=O)c(c5oc6cc(N7CCN(CC(C)C)CC7)cc(O)c6nc-5c4c3C2=O)NC(=O)/C(C)=C\C=C\[C@H](C)[C@H](O)[C@@H](C)[C@@H](O)[C@@H](C)[C@H](OC(C)=O)[C@@H]1C [Rifalazil, 3′-hydroxy-5′-(4-isobutyl-1-piperazinyl)benzoxasinorifamycin]",fold greater activity than rifabutin,M. tuberculosis,4 fold
same,fold greater activity than rifampin,M. tuberculosis,> 64 fold
same,"WBC counts, level of continuous drop",[1],around 2.0 K/CU MM
same,nadir of mean WBC after the last dose,[1],1 to 2 days
same,time for hematologic parameters to return to normal after the last dose,[1],≤ 14 days
same,liver weight,"[2]; 1,000 mg/kg, four weeks daily dosing",slight increase in liver weight
same,no observable adverse effect level,"[2]; 13-week study, daily oral",300 mg/kg
same,no-observed-adverse-effect-level,"[2]; chronic studies, dogs",1000 mg/kg
same,doses at which hematological changes were noted,"[2]; multiple-dose oral, dogs",> 30 mg/kg
same,MIC90,M. intracellulare,0.1 µg/mL
same,Half-life distribution t½ (mean),clinical [3],17.26 h
same,half-life,clinical [3]; Half-life distribution t½ (mean),604 min
same,Tmax,clinical [3]; Tmax (mean),5.25 h
same,CFUs at 24 hours lower than the control at zero hours,Helicobacter pylori,more than 4.5 log
same,Chlamydia pneumoniae in the lungs,[4],not detectable
same,spontaneous locomotor activity,[5]; 1000 mg/kg,increase in spontaneous locomotor activity for one hour
same,spontaneous locomotor activity,[5]; 100 and 300 mg/kg,no effect
same,clinical signs or general behavior,"[5]; oral 100, 300, or 1,000 mg/kg",little effect
same,MIC and MBC fold lower than rifampin,[6],at least 10 fold
same,plasma to blood ratio,clinical [7],1.6:1
same,AUC(0-inf),clinical [7]; 30 mg,505 ng·h/mL
same,AUC(0-t),clinical [7]; 30 mg,197 ng·h/mL
same,Cmax,clinical [7]; 30 mg,17.8 ng/mL
same,Tmax,clinical [7]; 30 mg,3.1 h
same,half-life,clinical [7]; 30 mg,2920 min
same,AUC(0-inf),clinical [7]; 100 mg,1540 ng·h/mL
same,AUC(0-t),clinical [7]; 100 mg,800 ng·h/mL
same,Cmax,clinical [7]; 100 mg,53.6 ng/mL
same,Tmax,clinical [7]; 100 mg,4 h
same,half-life,clinical [7]; 100 mg,2590 min
same,AUC(0-inf),clinical [7]; 300 mg,4330 ng·h/mL
same,AUC(0-t),clinical [7]; 300 mg,1450 ng·h/mL
same,Cmax,clinical [7]; 300 mg,116 ng/mL
same,Tmax,clinical [7]; 300 mg,3 h
same,half-life,clinical [7]; 300 mg,12300 min
